Data reported in US6492333B1, “Treatment of myeloma bone disease with proteasomal and NF-κB activity inhibitors” (Osteoscreen, Inc., priority 1999, dated 2002).
Where a SMILES comes first, the peptide text is derived from it. The star is where a group is joined. Cbz = O=C(OCc1ccccc1)*; OtBu = CC(C)(C)O*

What was measured:
[1] = relative to MG-132, MG-115 and MG-341
[2] = system: 5TGM-1 cultured myeloma cells; assay: PSI injected into subcutaneous 5TGM-1 myeloma tumors in mice; format: in vivo, C57BL/KaLwRij mice
Description: Nine (9) C57BL/KaLwRij mice were inoculated with 0.5×10^6 5TGM-1 cultured myeloma cells which were injected subcutaneously over the flank.
One group had PSI injected directly into the tumors (˜5 mg/kg/day) and the other group had only vehicle injected into the tumors.

[3] = system: 5TGM-1 cultured myeloma cells; assay: Hind-limb paralysis after intravenous 5TGM-1 myeloma cell inoculation; format: in vivo, C57BL/KaLwRij mice; details: PSI 5 mg/kg/day subcutaneously for 28 days; untreated mice all paralysed by at least day 27
Description: Ten (10) C57BL/KaLwRij mice were inoculated intravenously with 1×10^6 5TGM-1 cultured myeloma cells. When untreated, the mice invariably develop hind-limb paralysis after 26-30 days.
One group of five (5) mice were injected with PSI (5 mg/kg/day) subcutaneously over their flank portion for 28 days and the other group received only vehicle. […] All of the untreated mice had developed hind-limb paralysis by at least day 27. In contrast, none of the PSI-treated group developed paraplegia before at least day 33.

[4] = system: human myeloma IM-9 cells; assay: Viability of myeloma cells by trypan blue dye-exclusion assay (IM-9); format: cell-based; details: 24 hours
Description: (§1) In another experiment, the direct effect of the proteasomal inhibitor PSI and other NF-kB inhibitors on the viability in human myeloma cells and 5TGM-1 cells in vitro was evaluated.
(§2) 1×10^6 human myeloma (IM9 and U266BL) cells or 5TGM-1 cells were plated out in the presence and/or absence of PSI and other NF-κB inhibitors. After 24 hours, the viability of the myeloma cells was assessed by the trypan blue dye-exclusion assay. These compounds, at low (submicromolar) concentrations, markedly decrease the viability of both human and murine myeloma cells in culture.

[5] = system: U266BL cells; assay: Viability of myeloma cells by trypan blue dye-exclusion assay (U266BL); format: cell-based, human; details: 24 hours
Description: as §1, §2

[6] = system: 5TGM1 cells; assay: Viability of myeloma cells by trypan blue dye-exclusion assay (5TGM-1); format: cell-based, murine; details: 100 nM, 24 hours
Description: as §1, §2

[7] = system: 5TGM-1 cells; assay: Serum tumor marker IgG2b in mice inoculated intravenously with 5TGM-1 cells; format: in vivo, C57BL/KwLaRij mice; details: PSI 5 mg/kg/day subcutaneously; sera on days 0, 7, 14 and 18
Description: Eight (8) C57BL/KwLaRij mice were each injected with 1×10^6 5TGM-1 cells through the tail vein. They were then randomized into two groups, one group dosed with PSI (5 mg/kg/day subcutaneously) and the other group (untreated control) received only vehicle. Sera were obtained at the start (day 0) and on days 7, 14 and 18 followed by assay for IgG2b.

## C=C(C)[C@]12C[C@@H](C)[C@@]34O[C@](Cc5ccccc5)(O[C@@H]1[C@@H]3C=C(COC(=O)Cc1ccc(O)c(OC)c1)C[C@]1(O)C(=O)C(C)=C[C@@H]41)O2 [resiniferatoxin]
[1]
  activity in the ABA assay: less active

## CC[C@H](C)[C@H](NC(=O)OCc1ccccc1)C(=O)N[C@@H](CCC(=O)OC(C)(C)C)C(=O)N[C@@H](C)C(=O)N[C@H](C=O)CC(C)C [PSI, N-carbobenzoyl-Ile-Glu-(OtBu)-Ala-Leu-CHO] (Cbz-IE(OtBu)AL-aldehyde)
[2]; 4 months after treatment, PSI ~5 mg/kg/day intratumoral
  survival and signs of tumor: alive and well with no signs of tumor
[2]; PSI ~5 mg/kg/day injected directly into subcutaneous tumors, treatment commenced on day 35
  size of the tumors: decreased markedly
[2]; up until 3 months after tumor inoculation, even though treatment was discontinued, PSI ~5 mg/kg/day intratumoral
  health of treated mice: remained healthy
[3]
  time at which hind-limb paralysis (paraplegia) developed: ≥ 33 days
[4]; 0.01 μM
  viability: marked diminution in viability
[5]; 0.01 μM
  viability: less than 20%
[6]
  viability: ~0%
[7]
  tumor marker IgG2b in sera: markedly reduced

## O=C(NC1=CC(=O)c2ccccc2C1=O)c1ccccc1 [PPM-18]
[4]; concentration not given
  effect on viability: relatively ineffective
[5]; concentration not given
  effect on viability as compared to control: does not appear to affect viability appreciatively

## S=C(S)N1CCCC1 [PDTC, 1-pyrrolidine carbothiotic acid]
[5]; 0.1 μM
  viability: less than 40%
